Experimental data reported in patent US20080255117A1, “SULFONYLTRYPTOPHANOLS” (priority 2007, published 2008).

Target: T1, human FSH receptor (Homo sapiens, UniProt P23945)
T1 construct: expressed in transfected cells; host or cells: CHO cells (hFSHR clone 16)
T1 sequence (P23945 18-695): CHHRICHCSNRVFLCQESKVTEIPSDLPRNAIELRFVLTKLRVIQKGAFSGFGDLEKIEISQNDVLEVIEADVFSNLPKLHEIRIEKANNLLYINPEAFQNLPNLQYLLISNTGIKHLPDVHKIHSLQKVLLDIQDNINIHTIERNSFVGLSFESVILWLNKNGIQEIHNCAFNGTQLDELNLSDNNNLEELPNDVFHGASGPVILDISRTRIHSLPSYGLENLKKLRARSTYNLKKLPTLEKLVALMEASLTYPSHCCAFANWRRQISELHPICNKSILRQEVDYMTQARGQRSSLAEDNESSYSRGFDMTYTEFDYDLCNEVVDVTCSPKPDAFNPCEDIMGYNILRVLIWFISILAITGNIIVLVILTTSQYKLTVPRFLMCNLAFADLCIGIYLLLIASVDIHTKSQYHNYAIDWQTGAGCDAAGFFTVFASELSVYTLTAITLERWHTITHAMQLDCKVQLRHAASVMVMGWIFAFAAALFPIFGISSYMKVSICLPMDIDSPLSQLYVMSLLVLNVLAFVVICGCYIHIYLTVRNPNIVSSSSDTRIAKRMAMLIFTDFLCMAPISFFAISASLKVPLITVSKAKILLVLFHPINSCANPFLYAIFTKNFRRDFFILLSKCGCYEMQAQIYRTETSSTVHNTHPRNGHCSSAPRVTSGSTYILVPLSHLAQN
Test: HTRF assay for measuring cAMP in cells (FSH antagonism)
Assay type: cell-based
Conditions: FSH antagonistic effect in the HTRF assay; hFSHR clone 16 cells (CHO cells stably transfected with the human FSH receptor); in the presence of 1e-9 mol/l hFSH
Procedure: HTRF Assay for Measuring cAMP in Cells
The method is based on a competitive immunoassay between native cAMP, which has been produced by the cells, and cAMP which is labelled with cAMPD2 conjugate. The tracer binding was visualized by a monoclonal antibody, anti-cAMP labelled with cryptate [HTRF=homogeneous time-resolved fluorescence].
The specific signal is inversely proportional to the cAMP concentration of the samples employed.
The 665 nm/620 nm fluorescence ratio was evaluated.
The following material was used: 96-well plates for the tissue culture, 96-well plates with black edge and black base (e.g. Fluotrac 600 from Greiner), 96-well plates for the substance dilutions of polypropylene and cAMP Femtomolar (4000 wells Kit, CIS Bio International # 62AM5PEJ).
The following reagents were used: BSA (bovine serum albumin) Fraction V protease-free, IBMX (3-isobutyl-1-methylxanthine), hFSH (human follicle stimulating hormone), Triton X-100 analytical grade, potassium fluoride analytical grade, G 418 (Geneticin) and Accutase.
Buffer 1 (washing and testing buffer) contained PBS, 1 mM CaCl2, 1 mM MgCl2, 0.2% glucose; 0.1% BSA, 1 mM IBMX. […]
The values of the well ratio were averaged and then entered directly in SigmaPlot versus the concentrations. The maximum and minimum values were determined for each plate, and half the difference is to be regarded as IC50.

Row | SMILES | IC50
1 | N#CCc1ccc(-c2cc3c(c(S(=O)(=O)N[C@@H](CO)Cc4c[nH]c5ccccc45)c2)OCC3)cc1 [Example 52, 5-(4-Cyanomethyl-phenyl)-2,3-dihydro-benzofuran-7-sulfonic acid [(R)-2-hydroxy-1-(1H-indol-3-ylmethyl)-ethyl]-amide] | 10 µM
2 | O=S(=O)(N[C@@H](CO)Cc1c[nH]c2ccccc12)c1cc(-c2ccc3ncccc3c2)cc2c1OCC2 [Example 39, 5-Quinolin-6-yl-2,3-dihydro-benzofuran-7-sulfonic acid [(R)-2-hydroxy-1-(1H-indol-3-ylmethyl)-ethyl]-amide] | 5 µM
